From patent publication US20050054620A1, “Paricalcitol as a chemotherapeutic agent” (priority 2003, published 2005)

Experiments:
PML-RARα fusion protein = experiment: Western blot for PML-RARα in PR9 cells with zinc; type: cell-based, human
Method: (A) NB-4 myeloid leukemia cell lines were treated with paricalcitol (0.1 μM) and/or arsenic trioxide (0.6 μM) for 3 days. Control cells were treated with vehicle alone. Cell lysates were made and used for Western blot which was probed sequentially with antibodies to RARA to detect the fusion protein PML-RARα. (B) U937 cells were stably transfected with either the control MT vector (U937-PMT) or the PML-RARα cDNA under the control of the Zn2^+-inducible murine metallothionein 1 promoter (PR9). Cells were treated either with (+) or without (−) Zn for 2 days. Paricalcitol and/or arsenic trioxide of the indicated doses were added to the cells. […] (C) U937-PMT and PR9 cells were treated either with or without Zn and with paricalcitol, and/or arsenic trioxide as indicated for 3 days, and CD14 expression was measured by flow cytometry.
Western blot analysis was performed as follows: cells were washed twice in PBS, suspended in lysis buffer (50 mM Tris at pH 8.0, 150 mM NaCl, 0.1% SDS, 0.5% sodium deoxycholate, 1% Nonidet P-40, phenylmethylsulfonyl fluoride at 100 μg/mL, aprotinin at 2 μg/mL, pepstatin at 1 μg/mL, and leupetin at 10 μg/mL), and placed on ice for 30 minutes. […] Protein concentrations were quantitated by using the Bio-Rad protein Assay Dye Reagent Concentrate (Bio-Rad Laboratories, Hercules, Calif.) according to the manufacture's recommendation. […]

24-hydroxylase mRNA [1] = experiment: RT-PCR of 24-hydroxylase mRNA in HT-29 cells; type: cell-based, human; settings: 10^−7M
Method: In FIG. 6B, HT-29 colon cancer cells were treated with paricalcitol (10^−7M) for 0, 6, 12 or 24 hrs and RNA was harvested. Expression of 24 hydroxylase mRNA was analysed by RT-PCR. The amounts of mRNA were normalized by comparison to 18S RNA. […] For the PCR analysis, RNA extraction and reverse transcription were done by TRIzole (Invitrogen, Carlsbad, Calif.) and reverse transcriptase (Promega, Madison, Wis.). A twenty-microliter volume of cDNA was prepared from 1 μg of RNA. cDNAs were amplified by PCR with specific primers for 24-hydroxylase and 18S. The cycle number was 25 for 18S and 32 for 24-hydroxylase. PCR product was separated on a 2% agarose gel, stained with ethidium bromide, and photographed.

HL-60 cells = experiment: Soft agar colony assay (clonal proliferation); type: cell-based; settings: Homo sapiens, 336 h, colonies counted after 14 days, read-out: concentration that caused 50% inhibition (ED50) of clonal growth
Method: (§1) A soft agar colony assay was used to test the effect of paricalcitol and 1,25(OH)2D3 on various cancer cell lines. For the soft agar colony assay, trypsinized and washed single-cell suspensions of cells were enumerated and plated into 24 well flat bottom plates using a two-layer soft agar system with a total of 1×10^3 cells/well in a volume of […], as described previously (Kubota et al., supra, 1998).
(§2) Cell lines used in this study were obtained from American Type Culture Collection (Rockville, Md.) and were maintained according to their recommendations. Myeloid leukemia cell lines (HL-60, NB-4, THP-1, U937), lymphoma cell lines (Raji, Ramos, Daudi, Jurkat, Jeko-1, JUDHL) and myeloma cell lines (RPMI-8226, ARH-77, NCI-H929) were grown in RPMI 1640 with 10% FCS. Breast cancer cell lines (MCF-7, MDA-MB-231), brain cancer cell lines (U343, U118, U138, U373, U87), and colon cancer cell lines (HT-29, SW837, SW480, SW620, HCT116) were maintained in DMEM with 10% FCS. Endometrial carcinoma cell line, AN-3 was maintained in Alpha Minimum Essential Medium (a-MEM) with 10% FCS.

THP-1 = experiment: Soft agar colony assay (clonal proliferation); type: cell-based; settings: Homo sapiens, 336 h, colonies counted after 14 days, read-out: concentration that caused 50% inhibition (ED50) of clonal growth
Method: as §1, §2

HT-29 cells = experiment: Soft agar colony assay (clonal proliferation); type: cell-based; settings: Homo sapiens, 336 h, colonies counted after 14 days, read-out: concentration that caused 50% inhibition (ED50) of clonal growth
Method: as §1, §2

NCI-H929 cells = experiment: Soft agar colony assay (clonal proliferation); type: cell-based; settings: Homo sapiens, 336 h, colonies counted after 14 days, read-out: concentration that caused 50% inhibition (ED50) of clonal growth
Method: as §1, §2

NB-4 cells = experiment: Soft agar colony assay (clonal proliferation); type: cell-based; settings: Homo sapiens, 336 h, colonies counted after 14 days, read-out: concentration that caused 50% inhibition (ED50) of clonal growth
Method: as §1, §2

SW837 = experiment: Soft agar colony assay (clonal proliferation); type: cell-based; settings: Homo sapiens, 336 h, colonies counted after 14 days, read-out: concentration that caused 50% inhibition (ED50) of clonal growth
Method: as §1, §2

SW837 cells = experiment: Western blot of cell lysates; type: cell-based, human; settings: 10^−7M, 72 hrs
Method: Western blot analysis was used to determine the levels of proteins involved in cell cycle and differentiation. […] After centrifugation at 15,000×g for 15 min at 4° C., the suspension was collected. Protein concentrations were quantitated using the Bio-Rad assay (Bio-Rad Labolatories, Hercules, Calif.). […] The blots were developed using the Supersignal West Pico Chemiluminescent Substrate Kit (Pierce, Rockford, Ill.). In FIG. 4C, HT-29 and SW837 cells were cultured with either paricalcitol (10^−7M) or 1,25(OH)2D3 (10^−7M) for 72 hrs. Cell lysates were prepared and analyzed by Western blot which was probed sequentially with antibodies to COX-1 and COX-2 (Santa Cruz Biotechnology). Control cells were treated with vehicle alone. The amount of protein was normalized by comparison to the quantity of GAPDH.

ARH-77 myeloma cells = experiment: MTT assay; type: cell-based, human
24-hydroxylase mRNA [2] = experiment: RT-PCR of 24-hydroxylase mRNA, spleen mononuclear cells of VDR knock-out mice; type: cell-based; settings: cells from VDR−/− mice; 10^−8 M
Method: Expression of 24 hydroxylase mRNA was analysed by RT-PCR. The amounts of mRNA were normalized by comparison to 18S RNA. For the PCR analysis, RNA extraction and reverse transcription were done by TRIzole (Invitrogen, Carlsbad, Calif.) and reverse transcriptase (Promega, Madison, Wis.). A twenty-microliter volume of cDNA was prepared from 1 μg of RNA. cDNAs were amplified by PCR with specific primers for 24-hydroxylase and 18S. The cycle number was 25 for 18S and 32 for 24-hydroxylase. PCR product was separated on a 2% agarose gel, stained with ethidium bromide, and photographed.
Isolated spleens were injected with DMEM (Gibco BRL) plus 10% FCS and crushed with forceps to release cells. Mononuclear cells from bone marrow or spleen were separated by Ficoll-Hypaque density centrifugation (Amersham Pharmacia, Uppsala, Sweden).

Compound | concentration at which PML-RARα protein expression was barely detectable (PML-RARα fusion protein; PR9 cells with zinc) | protein level of PML-RARa induced by zinc (PML-RARα fusion protein; PR9 cells, dose dependent) | time of exposure within which 24-hydroxylase mRNA expression was induced (24-hydroxylase mRNA [1]) | EC50 (HL-60 cells) | EC50 (THP-1) | EC50 (HT-29 cells) | EC50 (NCI-H929 cells) | EC50 (NB-4 cells) | EC50 (SW837) | decrease of COX-2 expression (SW837 cells) | effect on COX-1 expression (SW837 cells) | antiproliferative effect (ARH-77 myeloma cells) | induction of 24-hydroxylase (24-hydroxylase mRNA [2])
arsenic trioxide | over 0.4 μM | decreased the protein level of PML-RARa |  |  |  |  |  |  |  |  |  |  | 
C[C@H](/C=C/[C@H](C)C(C)(C)O)[C@H]1CC[C@H]2/C(=C/C=C3C[C@@H](O)C[C@H](O)C3)CCC[C@]12C [paricalcitol, 19-nor-1,25, (OH)2D3] |  |  | ≤ 6 h | 2.4 nM | 5.8 nM | 17 nM | 0.02 nM | 3.4 nM | 46 nM | 40% | without affecting | somewhat less than the effect on NCI-H929 cells | not inducible
